Tested on: NK92-GFP cells
Experiment: NK92-GFP infiltration into PDAC tumor spheroids
Assay type: cell-based, human
Conditions: 10 uM Cpd60, 4 hours
Experimental: PSC or PANC-1 spheroids were generated by plating 10,000 cells in a 0.1% agarose coated U-bottomed 96-well plate. PSC+PANC-1 spheroids were generated by plating 5,000 cells of each cell type. Aggregation was promoted by centrifuging the cells at 1000 rpm for 5 minutes. Cells incubated overnight at 37° C. The next day, 1,000 NK92-GFP cells were added per well and incubated for 4 hours at 37° C. Spheroids were imaged using the Olympus IX-71 Inverted Epifluorescent Microscope at 5×. Images were analyzed in FIJI. All images underwent identical contrast enhancement and background reduction. Then a line was drawn from spheroid edge to spheroid center and GFP intensity along that line was measured. Graphs of resulting data and statistical analysis were generated in Graphpad Prism 9.

## N#C[C@@H]1CC(F)(F)CN1C(=O)CNC(=O)c1ccnc2ccccc12 [Cpd60]
Any region
  NK cell content in PANC-1 spheroids: no effect
mid-edge and mid-center regions
  NK cell content in PSC spheroids: significantly reduced
mid-edge region
  NK cell content in PSC+PANC-1 spheroids: significantly reduced

— patent publication US20240115670A1, “FIBROBLAST ACTIVATION PROTEIN MODULATION TO ALTER IMMUNE CELL MIGRATION AND TUMOR INFILTRATION” (Georgetown University, priority 2021, published 2024)
